Measurements from PubChem BioAssay (NCI).
“And” between values parts separate entries of the source, which are not always exact repeats. Equal entries are not always repeated.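 Exposure lasted 48 hours, with cells grown in 96-well plates and compounds tested at five concentrations. GI50: concentration for 50% inhibition of growth. TGI marks complete inhibition of growth.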

Experiments:
Experiment in all cases: NCI tumour cell line growth inhibition, 48 h
HOP-62 NSCLC = test system: HOP-62 NSCLC
NCI-H460 lung = test system: NCI-H460 lung
NCI-H226 lung = test system: NCI-H226 lung
K-562 leukemia = test system: K-562 leukemia
SK-MEL-5 melanoma = test system: SK-MEL-5 melanoma
MCF7 breast = test system: MCF7 breast
DU-145 prostate = test system: DU-145 prostate
HT29 colon = test system: HT29 colon
UACC-62 melanoma = test system: UACC-62 melanoma
A549 NSCLC = test system: A549 NSCLC

SMILES | GI50 (HOP-62 NSCLC) | TGI (HOP-62 NSCLC) | GI50 (NCI-H460 lung) | TGI (NCI-H460 lung) | GI50 (NCI-H226 lung) | TGI (NCI-H226 lung) | GI50 (K-562 leukemia) | TGI (K-562 leukemia) | GI50 (SK-MEL-5 melanoma) | TGI (SK-MEL-5 melanoma) | GI50 (MCF7 breast) | TGI (MCF7 breast) | GI50 (DU-145 prostate) | TGI (DU-145 prostate) | GI50 (HT29 colon) | TGI (HT29 colon) | GI50 (UACC-62 melanoma) | TGI (UACC-62 melanoma) | GI50 (A549 NSCLC) | TGI (A549 NSCLC)
CN1CCN(c2ccc(-c3cnc4c(-c5csc6ccccc56)cnn4c3)cc2)CC1 | 8.37 µM | > 15 µM | 2.14 µM | 4.41 µM | 13.5 µM | > 15 µM | 3.03 µM | > 15 µM | 2.48 µM | 4.54 µM | 2.58 µM | > 15 µM | 5.59 µM | > 15 µM | 1.19 µM | > 15 µM | > 15 µM | > 15 µM | 3.11 µM | 11.4 µM
C=C(CNCCc1ccc(O)cc1)[C@@H]1CC[C@]2(CO)CC[C@]3(C)[C@H](CC[C@@H]4[C@@]5(C)CCC(=O)C(C)(C)[C@@H]5CC[C@]43C)[C@@H]12 | 1.58 µM | 3.11 µM | 1.66 µM | 3.28 µM | 1.62 µM | 3.64 µM | 1.86 µM | 4.72 µM | 1.63 µM | 2.99 µM | 1.87 µM | 3.84 µM | 1.77 µM | 3.15 µM | 1.62 µM | 3.08 µM | 1.69 µM | 3.09 µM | 1.63 µM | 2.99 µM
CO[C@H]1[C@H](O)[C@H](O[C@H]2CC[C@@]3(C)[C@H](CC[C@@H]4[C@@H]3CC[C@]3(C)[C@@H](C5=CC(=O)OC5)CC[C@]43O)C2)O[C@@H](C)[C@@H]1O |  |  |  | 0.00151 µM |  | 0.0192 µM and < 0.0129 µM | 0.00062 µM | 0.0647 µM |  | 0.00194 µM |  | 0.0288 µM |  | < 0.0001 µM |  | 0.00148 µM |  | 0.00312 µM and < 0.0104 µM |  | 0.00078 µM
O=C(O)CCC1COc2ccccc2O1 (stereo not given) |  | > 10 µM |  | > 10 µM |  | > 10 µM |  | > 10 µM |  | > 10 µM |  | > 10 µM |  | > 10 µM |  | > 10 µM |  | > 10 µM |  | > 10 µM
COc1cc2c3c(n(CCCN)c(=O)c2cc1OC)-c1ccc(F)cc1C3=O | 0.544 µM | 2.05 µM | 0.369 µM | 1.78 µM | 7.87 µM | 27.2 µM | 1.24 µM | 5.28 µM | 1.29 µM | 6.06 µM | 0.618 µM | 7.25 µM | 0.788 µM | 2.03 µM | 1.03 µM | 3.18 µM | 0.925 µM | 5.76 µM | 4.94 µM | 21.4 µM
COc1c2ccccc2c(O)c2c(=O)c(C(=O)O)cn(C)c12 | > 100 µM | > 100 µM | > 100 µM | > 100 µM | 17.4 µM | > 100 µM | > 100 µM | > 100 µM | > 100 µM | > 100 µM | > 100 µM | > 100 µM | > 100 µM | > 100 µM | > 100 µM | > 100 µM | 24.7 µM | > 100 µM | > 100 µM | > 100 µM
NC1=NC(c2ccccc2)N=C(Nc2ccccc2)N1 (stereo not given) | > 100 µM | > 100 µM | > 100 µM | > 100 µM | > 100 µM | > 100 µM | > 100 µM | > 100 µM | 93 µM | > 100 µM | 38.5 µM | > 100 µM | > 100 µM | > 100 µM | > 100 µM | > 100 µM | > 100 µM | > 100 µM | > 100 µM | > 100 µM
